Format in all cases: cell-based
Assay [1] has as its system Chikungunya virus (CHIKV). Description: microbe, parasite or virus in culture. The conditions noted are these: Chikungunya virus, Vero, 48 h, read-out: Percent viral inhibition CHKV.
The subject of another assay is dengue virus (DENV). Description: microbe, parasite or virus in culture. As to conditions: Dengue virus, Vero, 120 h, read-out: Percent viral inhibition DENY.
Another assay has as its system Marburg virus (MARV). As to the kind of experiment: organism not typed. As to conditions: Vero, 72 h, read-out: Percent viral inhibition MARV.

These results are taken from patent publication US20230011571A1, “SMALL MOLECULE FURIN INHIBITORS FOR TREATING INFECTIOUS DISEASES” (BP Asset V, Inc., priority 2019, published 2023).

The inhibition is the change of the read-out against control, counted positive when it falls. For the compound `CC(=O)NC(=O)NCC1CCN(Cc2cc(Oc3cnc(N4CCN(C)CC4)nc3)nc(-c3cc(Cl)cc(Cl)c3)c2)CC1` [Example 327, N-(((1-((2-(3,5-dichlorophenyl)-6-((2-(4-methylpiperazin-1-yl)pyrimidin-5-yl)oxy)pyridin-4-yl)methyl)piperidin-4-yl)methyl)carbamoyl)acetamide], the values for the inhibition at 1 µM (in assay [1]; with dengue virus (DENV); with Marburg virus (MARV)) were 0%, 0% and 63.8%, respectively.

For `COC(=O)NCC1(F)CCN(Cc2cc(Oc3cnc(N4CCN(CCC(=O)O)CC4)nc3)nc(-c3cc(Cl)cc(Cl)c3)c2)CC1` [Example 51, 3-(4-(5-((6-(3,5-dichlorophenyl)-4-((4-fluoro-4-(((methoxycarbonyl)amino)methyl)piperidin-1-yl)methyl)pyridin-2-yl)oxy)pyrimidin-2-yl)piperazin-1-yl)propanoic acid], the inhibition at 1 µM in assay [1] is 21.1%; in the assay with dengue virus (DENV), 56.7%; in the assay with Marburg virus (MARV) it was 43.6%.

On to `CNC(=O)NCC1CCN(Cc2cc(Oc3cnc(N4CCN(CCCS(C)(=O)=O)CC4)nc3)nc(-c3cc(F)cc(Cl)c3)c2)CC1` [Example 274, 1-((1-((2-(3-chloro-5-fluorophenyl)-6-((2-(4-(3-(methylsulfonyl)propyl)piperazin-1-yl)pyrimidin-5-yl)oxy)pyridin-4-yl)methyl)piperidin-4-yl)methyl)-3-methylurea], for which the inhibition at 1 µM in assay [1] came out at 44.4%; in the assay with dengue virus (DENV), 56.1%; in the assay on Marburg virus (MARV), 49%.

Take `CNC(=O)NCC1CCN(Cc2cc(Oc3ccc(N4CCN(CCOC)CC4)nc3)nc(-c3cc(Cl)cc(Cl)c3)c2)CC1` [Example 254, 1-((1-((2-(3,5-dichlorophenyl)-6-((6-(4-(2-methoxyethyl)piperazin-1-yl)pyridin-3-yl)oxy)pyridin-4-yl)methyl)piperidin-4-yl)methyl)-3-methylurea]: the figures for the inhibition at 1 µM (in assay [1]; with dengue virus (DENV); in the assay on Marburg virus (MARV)) were 5.74%, 57% and 40.4%, respectively.

With `CC(=O)NCC1CCN(Cc2cc(Oc3cnc(N4CCNCC4)cn3)nc(-c3cc(Cl)cc(Cl)c3)c2)CC1` [Example 109, N-((1-((2-(3,5-dichlorophenyl)-6-((5-(piperazin-1-yl)pyrazin-2-yl)oxy)pyridin-4-yl)methyl)piperidin-4-yl)methyl)acetamide], the inhibition at 1 µM in assay [1] turned out to be 7.33%; with dengue virus (DENV), 0%; in the assay with Marburg virus (MARV), 32.9%.

Consider `CC(=O)NCC1CCN(Cc2cc(Oc3ccc(N4CCN(CCc5nnn[nH]5)CC4)nc3)nc(-c3cc(Cl)cc(Cl)c3)c2)CC1` [Example 14], for which the inhibition at 1 µM came out at 3.02% in assay [1], 0% in the assay on dengue virus (DENV) and 17.3% with Marburg virus (MARV).

As to `CN1CCN(c2ncc(Oc3cc(CN4CCC(CC(N)=O)CC4)cc(-c4cc(Cl)cc(Cl)c4)n3)cn2)CC1` [Example 142, 2-(1-((2-(3,5-dichlorophenyl)-6-((2-(4-methylpiperazin-1-yl)pyrimidin-5-yl)oxy)pyridin-4-yl)methyl)piperidin-4-yl)acetamide], the inhibition at 1 µM was 15.4% in assay [1], 51.5% in the assay on dengue virus (DENV) and 49.1% with Marburg virus (MARV).

Regarding `CNC(=O)NCC1CCN(Cc2cc(Oc3cnc(N4CCN(C[C@@H](C)O)CC4)nc3)nc(-c3cc(Cl)cc(Cl)c3)c2)CC1` [Example 310, (R)-1-((1-((2-(3,5-dichlorophenyl)-6-((2-(4-(2-hydroxypropyl)piperazin-1-yl)pyrimidin-5-yl)oxy)pyridin-4-yl)methyl)piperidin-4-yl)methyl)-3-methylurea], the inhibition at 1 µM is 2.85% in assay [1], 19.3% in the assay on dengue virus (DENV) and 18% with Marburg virus (MARV).

Turning to `CC(CC1CCN(Cc2cc(Oc3cnc(N4CCNCC4)nc3)nc(-c3cc(Cl)cc(Cl)c3)c2)CC1)C(=O)O` (stereo not drawn) [Example 269, 3-(1-((2-(3,5-dichlorophenyl)-6-((2-(piperazin-1-yl)pyrimidin-5-yl)oxy)pyridin-4-yl)methyl)piperidin-4-yl)-2-methylpropanoic acid], the inhibition at 1 µM amounted to 24.5% in assay [1], 39.5% in the assay on dengue virus (DENV) and 35% with Marburg virus (MARV).

In the case of `O=C(O)CC1CCN(Cc2cc(Oc3ccc(N4C[C@@H]5C[C@H]4CN5)nc3)nc(-c3cc(Cl)cc(Cl)c3)c2)CC1` [Example 187, 2-(1-((2-((6-((1S,4S)-2,5-diazabicyclo[2.2.1]heptan-2-yl)pyridin-3-yl)oxy)-6-(3,5-dichlorophenyl)pyridin-4-yl)methyl)piperidin-4-yl) acetic acid], the figures for the inhibition at 1 µM (in assay [1]; with dengue virus (DENV); in the assay with Marburg virus (MARV)) were 22.4%, 84% and 24.1%, respectively.

With `CNC(=O)NCC1CCN(Cc2cc(Oc3ccc(N4CCN(CCCS(C)(=O)=O)CC4)nc3)nc(-c3cc(Cl)cc(Cl)c3)c2)CC1` [Example 255, 1-((1-((2-(3,5-dichlorophenyl)-6-((6-(4-(3-(methylsulfonyl)propyl)piperazin-1-yl)pyridin-3-yl)oxy)pyridin-4-yl)methyl)piperidin-4-yl)methyl)-3-methylurea], the inhibition at 1 µM worked out at 16.1% in assay [1], 10.3% in the assay with dengue virus (DENV) and 40.1% with Marburg virus (MARV).

In the case of `O=C(O)CC1CCN(Cc2cc(Oc3cnc(N4CCN(C5CC(O)C5)CC4)nc3)nc(-c3cc(Cl)cc(Cl)c3)c2)CC1` (stereo not drawn) [Example 22, 2-(1-((2-(3,5-dichlorophenyl)-6-((2-(4-(3-hydroxycyclobutyl)piperazin-1-yl)pyrimidin-5-yl)oxy)pyridin-4-yl)methyl)piperidin-4-yl)acetic acid], the inhibition at 1 µM in assay [1] amounted to 26.8%; with dengue virus (DENV), 64.4%; with Marburg virus (MARV), 52.5%.

For the compound `CN1CCCN(c2ncc(Oc3cc(CN4CC[C@@H]5[C@H](CC4)[C@H]5C(=O)O)cc(-c4cc(Cl)cc(Cl)c4)n3)cn2)CC1` [Example 397, (1R,7S,8r)-4-((2-(3,5-dichlorophenyl)-6-((2-(4-methyl-1,4-diazepan-1-yl)pyrimidin-5-yl)oxy)pyridin-4-yl)methyl)-4-azabicyclo[5.1.0]octane-8-carboxylic acid], the inhibition at 1 µM was 25.1% in assay [1], 38.7% in the assay with dengue virus (DENV) and 46.2% in the assay on Marburg virus (MARV).

For `CC(CCN1CCN(c2ncc(Oc3cc(CN4CCCC4)cc(-c4cc(Cl)cc(Cl)c4)n3)cn2)CC1)C(=O)O` (stereo not drawn) [Example 83, 4-(4-(5-((6-(3,5-dichlorophenyl)-4-(pyrrolidin-1-ylmethyl)pyridin-2-yl)oxy)pyrimidin-2-yl)piperazin-1-yl)-2-methylbutanoic acid], the inhibition at 1 µM in assay [1] was 33.4%; in the assay on dengue virus (DENV), 28.9%; with Marburg virus (MARV), 53.8%.

Take `COCCN1CCN(c2ncc(Oc3cc(CN4CCC(CNC(C)=O)CC4)cc(-c4cc(Cl)cc(Cl)c4)n3)cn2)CC1` [Example 245, N-((1-((2-(3,5-dichlorophenyl)-6-((2-(4-(2-methoxyethyl)piperazin-1-yl)pyrimidin-5-yl)oxy)pyridin-4-yl)methyl)piperidin-4-yl)methyl)acetamide]: the inhibition at 1 µM in assay [1] stood at 24.1%; in the assay with dengue virus (DENV), 53.3%; with Marburg virus (MARV) it was 53.9%.

Regarding `CNC(=O)NCC1CCN(Cc2cc(Oc3cnc(N4CCN(CCCS(N)(=O)=O)CC4)nc3)nc(-c3cc(Cl)cc(Cl)c3)c2)CC1` [Example 48, 3-(4-(5-((6-(3,5-dichlorophenyl)-4-((4-((3-methylureido)methyl)piperidin-1-yl)methyl)pyridin-2-yl)oxy)pyrimidin-2-yl)piperazin-1-yl)propane-1-sulfonamide], the values for the inhibition at 1 µM (in assay [1]; in the assay with dengue virus (DENV); in the assay with Marburg virus (MARV)) were 15.2%, 26% and 15.7%, respectively.

Regarding `O=C(O)CC1CCN(Cc2cc(Oc3cnc(N4CCN(C(CO)CO)CC4)nc3)nc(-c3cc(Cl)cc(Cl)c3)c2)CC1` [Example 23, 2-(1-((2-(3,5-dichlorophenyl)-6-((2-(4-(1,3-dihydroxypropan-2-yl)piperazin-1-yl)pyrimidin-5-yl)oxy)pyridin-4-yl)methyl)piperidin-4-yl)acetic acid], the inhibition at 1 µM was determined as 21.6% in assay [1], 11% in the assay with dengue virus (DENV) and 52.5% in the assay with Marburg virus (MARV).

With `CC(=O)NCC1CCN(Cc2cc(Oc3cnc(N4CCN(C)CC4)nc3)nc(-c3cc(Cl)cc(Cl)c3)c2)CC1` [Example 64, N-((1-((2-(3,5-dichlorophenyl)-6-((2-(4-methylpiperazin-1-yl)pyrimidin-5-yl)oxy)pyridin-4-yl)methyl)piperidin-4-yl)methyl)acetamide], the inhibition at 1 µM in assay [1] was 6.9%; in the assay on dengue virus (DENV) it was 37%; with Marburg virus (MARV), 37.8%.

Turning to `CC(=O)NCC1CCN(Cc2cc(Oc3cnc(N4CCN(CCC(=O)O)CC4)cn3)nc(-c3cc(Cl)cc(Cl)c3)c2)CC1` [Example 111], the values for the inhibition at 1 µM (in assay [1]; in the assay with dengue virus (DENV); with Marburg virus (MARV)) were 22.3%, 48.8% and 29.8%, respectively.

On to `CN1C2CC1CN(c1ncc(Oc3cc(CN4CCC(CC(=O)O)CC4)cc(-c4cc(Cl)cc(Cl)c4)n3)cn1)C2` [Example 228, 2-(1-((2-(3,5-dichlorophenyl)-6-((2-(6-methyl-3,6-diazabicyclo[3.1.l]heptan-3-yl)pyrimidin-5-yl)oxy)pyridin-4-yl)methyl)piperidin-4-yl)acetic acid], for which the inhibition at 1 µM came out at 17.3% in assay [1], 31.9% in the assay with dengue virus (DENV) and 36.2% in the assay on Marburg virus (MARV).

`CC(=O)NCC1CCN(Cc2cc(Oc3ccc(N4CCN(CCC(=O)O)CC4)nn3)nc(-c3cc(Cl)cc(Cl)c3)c2)CC1` [Example 169, 3-(4-(6-((4-((4-(acetamidomethyl)piperidin-1-yl)methyl)-6-(3,5-dichlorophenyl)pyridin-2-yl)oxy)pyridazin-3-yl)piperazin-1-yl)propanoic acid]: the inhibition at 1 µM in assay [1] was determined as 0%; in the assay on dengue virus (DENV), 0%; with Marburg virus (MARV), 16.4%.
